In ChEMBL document CHEMBL1799952, “Synthesis of novel heme-interacting acridone derivatives to prevent free heme-mediated protein oxidation and degradation” (Bioorg Med Chem Lett, 2011) one finds Ka, inhibition and IC50 data, which are given here for six molecules.

The structures appear in SMILES notation. The source made the active and inactive calls. No cut-off for these calls is given here.

Assay [1] has as its system Heme. Kind of assay: Binding affinity to heme assessed as equilibrium binding constant by UV-visible spectrophotometry.
Assay [2] has as its system Heme. Kind of assay: Inhibition of heme-mediated bovine serum albumin degradation at 100 uM after 1 hr by gel electrophoresis in presence of H2O2 at pH 7.4.
Assay [3] has as its system Heme. Kind of assay: Inhibition of heme-mediated bovine serum albumin oxidation assessed as protein carbonyl formation after 1 hr in presence of H2O2 at pH 7.4.

By IC50 is commonly meant the concentration needed to halve the response being measured. Consider `O=c1c2ccccc2[nH]c2cc(Cl)ccc12`, for which, in the assay on Heme [1], the Ka was determined as 4.6 ×10⁴ /M. The inhibition result with Heme [2] was “Active”. The half-maximal inhibitory concentration (IC50) with Heme [3] was 36 µM.

Regarding `COc1cc2c(c(O)c1OC)c(=O)c1ccccc1n2C` [ARBORININE], in the assay on Heme [1], the Ka worked out at 3.9 ×10⁴ /M. The inhibition result in the assay with Heme [2] is “Active”. The 50% inhibitory concentration (IC50) with Heme [3] was 42 µM.

Regarding `O=C(O)c1cccc2c(=O)c3ccccc3[nH]c12`, in the assay on Heme [1], the Ka amounted to 3.8 ×10⁴ /M. Also, in the assay with Heme [3], the half-maximal inhibitory concentration (IC50) amounted to 43 µM.

In the case of `O=c1c2ccccc2[nH]c2cc([N+](=O)[O-])ccc12`, the Ka in the assay on Heme [1] was determined as 4.3 ×10⁴ /M. For the same molecule, in the assay on Heme [2], the inhibition entry was “Active”. The half-inhibitory concentration (IC50) in the assay with Heme [3] was 41 µM.

Take `O=c1c2ccccc2[nH]c2ccccc12` [ACRIDONE]: in the assay with Heme [1], the Ka turned out to be 2.4 ×10⁴ /M. In addition, the IC50 in the assay with Heme [3] worked out at 55 µM.

For the molecule `COc1ccc2[nH]c3ccccc3c(=O)c2c1`, the Ka in the assay on Heme [1] is 2.7 ×10⁴ /M. Also, the IC50 with Heme [3] was determined as 44 µM.
